Test results: patent US20250171465A1, “AKT INHIBITORS” (Stablix, Inc., priority 2023, published 2025)

Test system: KU1919.1
Test: Cell Titer Glo (CTG) proliferation assay, KU1919
Format: cell-based
Settings: Homo sapiens, KU-19-19; KU1919.1 cells, 72.0 hrs.; read-out: AVE CTG Proliferation KU1919.1 72.0 hrs.
Experimental: Seed cells in 40 μL of cell culture media into each well of 384-well cell culture plate, spin them at room temperature at 1,000 RPM for 1 minute and then transfer the plates into 37° C. 5% CO2 incubator overnight. Next day, treat cells with 40 nL of diluted compound and return to incubator. After compound treatment for 3 days, Add 30 μL of CellTiter-Glo reagent (Promega) into each well to be detected. Then place the plates at room temperature for 30 min followed by reading on EnVision. Inhibition activity calculated as % DMSO=100×(LumSample-Lum low control)/(Lum high control-Lum low control) where high control is from cells treated with 0.1% DMSO and Low control obtained from PBS only. Use XLFit (equation 201) to calculate IC50 (A+ ((B−A)/(1[…]((x/C)^D)))) where A: Bottom, B: Top, C: IC50, D: Slope.

| Compound | IC50 [nM] |
| --- | --- |
| C[C@@H]1C[C@@H](O)c2ncnc(N3CCN(C(=O)[C@H](CCN4CCC(CN5CCN(C(=O)[C@H](NC(=O)c6cccc(C7CCCN(C(=O)CNC8CC8)C7)c6)C6CCCCC6)CC5)CC4)c4ccc(Cl)cc4)CC3)c21 (stereo partly shown) [Compound I-272] | 1000 to 5000 |
| C[C@@H]1C[C@@H](O)c2ncnc(N3CCN(C(=O)[C@@H](CCN4CCC(CN5CCN(C(=O)[C@H](NC(=O)c6cccc(C7CCCN(C(=O)CNC8CC8)C7)c6)C6CCCCC6)CC5)CC4)c4ccc(Cl)cc4)CC3)c21 (stereo partly shown) [Compound I-273] | 500 to 1000 |
| C[C@@H]1C[C@@H](O)c2ncnc(N3CCN(C(=O)[C@H](CCN4CCC(CN5CCN(C(=O)[C@H](NC(=O)c6cccc(C7CCCN(C(=O)CNCc8ccc(F)cc8F)C7)c6)C6CCCCC6)CC5)CC4)c4ccc(Cl)cc4)CC3)c21 (stereo partly shown) [Compound I-274] | 500 to 1000 |
| C[C@@H]1C[C@@H](O)c2ncnc(N3CCN(C(=O)[C@@H](CCN4CCC(CN5CCN(C(=O)[C@H](NC(=O)c6cccc(C7CCCN(C(=O)CNCc8ccc(F)cc8F)C7)c6)C6CCCCC6)CC5)CC4)c4ccc(Cl)cc4)CC3)c21 (stereo partly shown) [Compound I-275] | 500 to 1000 |
| C[C@@H]1C[C@@H](O)c2ncnc(N3CCN(C(=O)[C@H](CN4CCC(OC5CCN(C(=O)[C@H](NC(=O)OC(C)(C)C)C6CCCCC6)CC5)CC4)c4ccc(Cl)cc4)CC3)c21 [Compound I-276] | 1000 to 5000 |
| CCc1cccc(-c2cc(F)c(C(=O)N3CCC(OC4CCN(CC[C@H](NC(=O)C5(N)CCN(c6ncnc7[nH]ccc67)CC5)c5ccc(Cl)cc5)CC4)CC3)c(F)c2)c1 [Compound I-280] | 1000 to 5000 |
| C=CC(=O)N1CCN(c2ccc(CCC(=O)N3CCC(CN4CCN(CC[C@H](NC(=O)C5(N)CCN(c6ncnc7[nH]ccc67)CC5)c5ccc(Cl)cc5)CC4)CC3)o2)C(=O)C1 [Compound I-284] | 1000 to 5000 |
| C=CC(=O)N1CCN(c2ccc(CCC(=O)N3CCC(OC4CCN(CC[C@H](NC(=O)C5(N)CCN(c6ncnc7[nH]ccc67)CC5)c5ccc(Cl)cc5)CC4)CC3)o2)C(=O)C1 [Compound I-285] | > 10000 |
| C=CC(=O)N1CCN(c2ccc(CCC(=O)N3CCN(CC4CCN(CC[C@H](NC(=O)C5(N)CCN(c6ncnc7[nH]ccc67)CC5)c5ccc(Cl)cc5)CC4)CC3)o2)C(=O)C1 [Compound I-286] | 1000 to 5000 |
| C=CC(=O)N1CCN(c2ccc(CCC(=O)NCCOCCNCC[C@H](NC(=O)C3(N)CCN(c4ncnc5[nH]ccc45)CC3)c3ccc(Cl)cc3)o2)C(=O)C1 [Compound I-287] | > 10000 |
| NC1(C(=O)N[C@@H](CCN2CCC(OC3CCN(C(=O)[C@H](NC(=O)c4cccc(C5CCN(C(=O)C6CC6)CC5)c4F)C4CCCCC4)CC3)CC2)c2ccc(Cl)cc2)CCN(c2ncnc3[nH]ccc23)CC1 [Compound I-288] | 1000 to 5000 |
| NC1(C(=O)N[C@@H](CCN2CCC(OC3CCN(C(=O)c4cccc(C5CCCN(C(=O)CNCc6ccc(F)cc6F)C5)c4F)CC3)CC2)c2ccc(Cl)cc2)CCN(c2ncnc3[nH]ccc23)CC1 (stereo partly shown) [Compound I-289] | 1000 to 5000 |
| NC1(C(=O)N[C@@H](CCN2CCC(OC3CCN(C(=O)c4cccc(C5CCCN(C(=O)C6CC6)C5)c4F)CC3)CC2)c2ccc(Cl)cc2)CCN(c2ncnc3[nH]ccc23)CC1 (stereo partly shown) [Compound I-290] | 1000 to 5000 |
| C[C@@H]1C[C@@H](O)c2ncnc(N3CCN(C(=O)[C@H](CN4CCC(OC5CCN(C(=O)[C@H](NC(=O)c6cccc(C7CCCN(C(=O)C8(C)CC8)C7)c6F)C6CCCCC6)CC5)CC4)c4ccc(Cl)cc4)CC3)c21 (stereo partly shown) [Compound I-291] | 1000 to 5000 |
| C[C@@H]1C[C@@H](O)c2ncnc(N3CCN(C(=O)[C@H](CN4CCC(OC5CCN(C(=O)[C@H](NC(=O)c6cccc(C7CCCN(C(=O)C89CC(C8)C9)C7)c6F)C6CCCCC6)CC5)CC4)c4ccc(Cl)cc4)CC3)c21 (stereo partly shown) [Compound I-292] | 1000 to 5000 |
| NC1(C(=O)N[C@@H](CCOCCN2CCC(OC3CCN(C(=O)[C@H](NC(=O)c4cccc(C5CCCN(C(=O)C67CC(C6)C7)C5)c4)C4CCCCC4)CC3)CC2)c2ccc(Cl)cc2)CCN(c2ncnc3[nH]ccc23)CC1 (stereo partly shown) [Compound I-293] | 1000 to 5000 |
